# Columns and labels:
# Vibrio fluvialis = test: agar disc diffusion assay, inhibition zone; assay type: cell-based; settings: 50 μg/disc, 30° C., 24 h, read-out: Inhibition Zone Width
# Method: (§1) Antibacterial activity was tested against bacteria using an agar disc diffusion assay method. Sterile paper discs (6 mm i.d.) impregnated with the substance under test at a concentration of 50 μg disc^−1 were applied onto the surface of an agar plate (plastic Petri dish) inoculated with one strain with sterile forceps and gently pressed down to ensure good contact with the surface. Blank discs treated with the same volume of DMSO were added. A control disc, containing streptomycin was used. After the application of discs, the plates were incubated at 30° C. for 24 h, and then the size of the inhibition zone was measured.
# as §1, with “using” for “using an”, “assay.” for “assay method.”, “disc” for “disc,”, “h. The” for “h, and then the”, “measured. The results are presented in Table 8 and Table 9 for Cyclo (D)-Pro-(D)-Phe and b3-methyl-N-(2-phenylethyl)butanamide, respectively.” for “measured.”
# Shewanella algae = test: agar disc diffusion assay, inhibition zone; assay type: cell-based; settings: 50 μg/disc, 30° C., 24 h, read-out: Inhibition Zone Width
# Method: as §1
# as §1, with “using” for “using an”, “assay.” for “assay method.”, “disc” for “disc,”, “h. The” for “h, and then the”, “measured. The results are presented in Table 8 and Table 9 for Cyclo (D)-Pro-(D)-Phe and b3-methyl-N-(2-phenylethyl)butanamide, respectively.” for “measured.”
# [1] = system: Pseudoalteromonas piscida; test: agar disc diffusion assay, inhibition zone; assay type: cell-based; settings: 50 μg/disc, 30° C., 24 h, read-out: Inhibition Zone Width
# Method: as §1
# as §1, with “using” for “using an”, “assay.” for “assay method.”, “disc” for “disc,”, “h. The” for “h, and then the”, “measured. The results are presented in Table 8 and Table 9 for Cyclo (D)-Pro-(D)-Phe and b3-methyl-N-(2-phenylethyl)butanamide, respectively.” for “measured.”
# Pseudoalteromonas sp. = test: agar disc diffusion assay, inhibition zone; assay type: cell-based; settings: 50 μg/disc, 30° C., 24 h, read-out: Inhibition Zone Width
# Method: as §1
# as §1, with “using” for “using an”, “assay.” for “assay method.”, “disc” for “disc,”, “h. The” for “h, and then the”, “measured. The results are presented in Table 8 and Table 9 for Cyclo (D)-Pro-(D)-Phe and b3-methyl-N-(2-phenylethyl)butanamide, respectively.” for “measured.”
# Moraxella phenylpyruvica = test: agar disc diffusion assay, inhibition zone; assay type: cell-based; settings: Psychrobacter phenylpyruvicus; 50 μg/disc, 30° C., 24 h; read-out: Inhibition Zone Width
# Method: as §1
# as §1, with “using” for “using an”, “assay.” for “assay method.”, “disc” for “disc,”, “h. The” for “h, and then the”, “measured. The results are presented in Table 8 and Table 9 for Cyclo (D)-Pro-(D)-Phe and b3-methyl-N-(2-phenylethyl)butanamide, respectively.” for “measured.”
# Micrococcus luteus = test: agar disc diffusion assay, inhibition zone; assay type: cell-based; settings: 50 μg/disc, 30° C., 24 h, read-out: Inhibition Zone Width
# Method: as §1
# as §1, with “using” for “using an”, “assay.” for “assay method.”, “disc” for “disc,”, “h. The” for “h, and then the”, “measured. The results are presented in Table 8 and Table 9 for Cyclo (D)-Pro-(D)-Phe and b3-methyl-N-(2-phenylethyl)butanamide, respectively.” for “measured.”
# [2] = system: Staphylococcus haemolyticus; test: agar disc diffusion assay, inhibition zone; assay type: cell-based; settings: 50 μg/disc, 30° C., 24 h, read-out: Inhibition Zone Width
# Method: as §1
# as §1, with “using” for “using an”, “assay.” for “assay method.”, “disc” for “disc,”, “h. The” for “h, and then the”, “measured. The results are presented in Table 8 and Table 9 for Cyclo (D)-Pro-(D)-Phe and b3-methyl-N-(2-phenylethyl)butanamide, respectively.” for “measured.”
# Vibrio sp. (NAP-4) = test: agar disc diffusion assay, inhibition zone; assay type: cell-based; settings: 50 μg/disc, 30° C., 24 h, read-out: Inhibition Zone Width
# Method: as §1
# as §1, with “using” for “using an”, “assay.” for “assay method.”, “disc” for “disc,”, “h. The” for “h, and then the”, “measured. The results are presented in Table 8 and Table 9 for Cyclo (D)-Pro-(D)-Phe and b3-methyl-N-(2-phenylethyl)butanamide, respectively.” for “measured.”
# Vibrio harveyi = test: agar disc diffusion assay, inhibition zone; assay type: cell-based; settings: 50 μg/disc, 30° C., 24 h, read-out: Inhibition Zone Width
# Method: as §1
# as §1, with “using” for “using an”, “assay.” for “assay method.”, “disc” for “disc,”, “h. The” for “h, and then the”, “measured. The results are presented in Table 8 and Table 9 for Cyclo (D)-Pro-(D)-Phe and b3-methyl-N-(2-phenylethyl)butanamide, respectively.” for “measured.”
# Ruegeria sp. = test: agar disc diffusion assay, inhibition zone; assay type: cell-based; settings: 50 μg/disc, 30° C., 24 h; read-out: Inhibition Zone Width
# Method: as §1
# Staphylococcus aureus = test: agar disc diffusion assay, inhibition zone; assay type: cell-based; settings: 50 μg/disc, 30° C., 24 h, read-out: Inhibition Zone Width
# Method: as §1
# [3] = system: Balanus amphitrite larvae; test: in vivo; settings: Balanus amphitrite, in vivo, 24 h
# Method: (§2) The larval bioassay was conducted according to Rittschof et al. (1994), which is incorporated by reference herein in its entirety.
# (§3) Toxicity of cyclo (D)-Pro-(D)-Phe was determined using 24-well polystyrene plates. Pure compound was dissolved in DMSO and added to autoclaved FSW to form different concentrations. Competent Balanus amphitrites larvae (10±2 individuals) were added to each well with 1 ml testing solution in 5 replicates. The wells containing FSW served as the control. The 24-well plates were incubated at 30° C. for 24 h. The percent mortality was determined by counting the number of dead larvae under a dissecting microscope.
# (§4) The assay was conducted according to Rittschof et al. (1994). Data plotted are means+SD of five replicates.
# in vivo = settings: Balanus amphitrite (barnacle) larvae, in vivo
# Method: as §2, §3, §4
# [4] = solubility in organic solvents; assay type: physicochemical; settings: at 25° C. in methanol, ethanol, propanol, butanol, ethyl acetate, acetone and acetonitrile
# [5] = system: barnacle Balanus amphitrite larvae; test: anti-larval settlement bioassay in 24-well plates; assay type: in vivo
# Method: Anti-larval settlement activity of 3-chloro-2,5-dihydroxy benzyl alcohol (compound 1) was conducted using 24-well polystyrene plates. Pure compound was dissolved in DMSO and added to autoclaved FSW at different concentrations. Competent Balanus amphitrites larvae (10±2 individuals) were added to each well with 1 ml testing solution in 5 replicates, and wells containing FSW (filtered seawater) served as control. The 24-well plates were incubated at 30° C. for 24 h. The percent settlement was determined by counting the number of settled larvae under a dissecting microscope. In all bioassays, FSW served as the control. Statistical calculations were performed with the SPSS (Statistical Package for the Social Sciences) software package, Version 11.
# as §2, §4
# For determining anti-larval settlement activity, adult Balanus amphitrile (Darwin) were collected from the intertidal zone in Hong Kong (22°19′N, 114°16′E). Nauplii obtained from several adults were mass-reared to cyprid stage at a density of 2 larvae ml^−1 in 0.22-μm-filtered seawater with 30 ppt salinity (FSW) using Chaetoceros gracilis Schutt as food and a rearing temperature of 28° C. Newly transformed cyprids were used for the experiment.
# Anti-larval settlement activity of succinic acid against B. amphitrite was determined using 24-well polystyrene plates. Pure compound was dissolved in autoclaved FSW ranged from 60-140 μg ml^−1 for B. amphitrite. Competent larvae (15±2 individuals) were added to each well with 1 ml testing solution in 5 replicates, and wells containing FSW served as the control. The 24-well plates were incubated at 30° C. for 24 h. The percent larval settlement was determined by counting the number of settled individuals under a dissecting microscope and expressed as a proportion of the total number of larvae in the well.
structure (smiles),measurement,setting,value
"OCc1cc(O)cc(Cl)c1O [Compound 1, 3-chloro-2,5-dihydroxy benzyl alcohol]",zone of inhibition at 50 µg/disc,Vibrio fluvialis,5.5 mm
same,zone of inhibition at 50 µg/disc,Shewanella algae,4.5 mm
same,zone of inhibition at 50 µg/disc,[1],5 mm
same,zone of inhibition at 50 µg/disc,Pseudoalteromonas sp.,5.5 mm
same,zone of inhibition at 50 µg/disc,Moraxella phenylpyruvica,5.5 mm
same,zone of inhibition at 50 µg/disc,Micrococcus luteus,6 mm
same,zone of inhibition at 50 µg/disc,[2],6 mm
same,zone of inhibition at 50 µg/disc,Vibrio sp. (NAP-4),4 mm
same,zone of inhibition at 50 µg/disc,Vibrio harveyi,3.5 mm
same,zone of inhibition at 50 µg/disc,Ruegeria sp.,3.5 mm
same,zone of inhibition at 50 µg/disc,Staphylococcus aureus,5.5 mm
same,therapeutic ratio LC50/EC50,[3],76.2
same,LC50 at 24 h,in vivo,267 µg/mL
same,solubility,[4],soluble
same,EC50,"[5]; Amphibalanus amphitrite, Balanus amphitrite larvae, read-out: EC50 (anti-larval settlement)",3.5 µg/mL
same,concentration at which compound started showing anti-settlement effects,[5]; as low as,0.1 µg/mL
same,barnacle larval settlement,"[5]; at 5 μg ml^−1, 24 h, 60% in the control",about 10%
